Assay results: patent US8987217B2, “Modified saponins for the treatment of fungal infections” (The General Hospital Corporation, priority 2010, dated 2015)
In brackets after ≈: the same amount, converted by molar mass.

What was measured:
[1] = test system: C. albicans strain DAY185; experiment: in vitro antifungal activity (MIC) in the co-inoculation assay, turbidity read visually; type: cell-based; details: co-inoculation assay, two-fold serial dilutions, C. albicans DAY185
Experimental: (§1) The procedure for the co-inoculation antifungal compound screen were conducted as previously described (Okoli et al., PLoS ONE, 4:e7025 (2009); Tampakakis et al., Nat Protocols, 3:1925-1931 (2008)), using the C. albicans strain DAY185 (Davis et al., Infect Immun, 68:5953-5959 (2000)) and the C. elegans glp-4;sek-1 double mutant.
The determination of the lowest concentration of the selected compounds showing in vitro antifungal activity was accomplished by following the steps detailed in the co-inoculation assay, using two-fold serial dilutions of the test compounds.

C. albicans = experiment: C. elegans-C. albicans co-inoculation assay, nematode survival; type: in vivo
Experimental: as §1
(§2) This assay allows simultaneous assessment of a compound's potential toxicity and the ability to promote the survival of the nematode in the presence of C. albicans, including modes of action not traditionally considered in antifungal assays such as impeding a fungal virulence factor or promoting host immune response. We performed a screen of 2,560 natural products representing a fraction of the Analyiticon Discovery compound collection (ac-discovery.com) housed at the Broad Institute of Harvard and MIT (Cambridge, Mass.). […] These natural products identified in the primary screen were retested and confirmed (FIG. 1; Table 1). […] Moreover, although the antifungal effects of some of these saponins have been reported (Sata et al., Biosci Biotechnol Biochem, 62:1904-1911 (1998); Ohtani et al., Phytochem, 33:83-86 (1993)), their efficacy against Candida spp. has not been studied.
After confirmation of these hits, dose response experiments were conducted to determine the concentration that provided maximum nematode survival. The compounds conferred a range of nematode survival from 27% (compound A6) to 93% (compounds A2, A7, A24, and A25), however, with the exception of A6, all compounds conferred a nematode survival over 65% (FIG. 1).

C. elegans = experiment: toxicity to the nematode in dose response experiments; details: dose response experiments, higher concentrations
Source text: as §2
Representatives of the saponins family are able to disrupt cellular membranes and the lytic activity on erythrocytes has been used as an assay for some saponins Francis et al., British Journal of Nutrition, 88:587-605 (2002)). This property is derived from the affinity of some saponins for binding cholesterol forming insoluble pores composed of the sterol and saponins (Bangham et al., Nature, 196:952-953(1962); Glauert et al., Nature, 196:953-955 (1962)). […] The dose-response experiments previously used to determine the EC50 and approximate the MIC can also indicate if the saponins maybe toxic to C. elegans and potentially to mammalian cells.

C. albicans biofilm = experiment: biofilm formation on silicone pads (dry mass); type: cell-based; details: 10 μg/mL (below the MIC), compared with caspofungin
Experimental: The minimal inhibitory concentration (MIC) was determined for strains DAY185, 98-145, 95-120 (White et al., Antimicrob Agents Chemother, 46:1704-1713 (2002)), and A15-10 (Garcia-Effron et al., Antimicrob Agents Chemother, 53:112-122 (2009)) spectrophotometrically using RPMI 1640 media (Mediatech, Inc.) following the standard CLSI microdilution protocol M27-A (National Committee for Clinical Laboratory Standards, Reference method for broth dilution susceptibility testing of yeasts. Tentative standard M27-A, Villanova, Pa. (1995)). Biofilm assays using identified compounds were conducted as previously described (Richard et al., Eukaryot Cell, 4:1493-1502 (2005)). The biofilm dry mass was determined by drying the silicone squares in a chemical hood, and weighing the resulting biofilm mass subtracting the previously weighed mass of the silicone square. […]
Caspofungin (Merck) served as a known antifungal compound control. In vitro hyphal inhibition was assessed by incubation of DAY185 in RPMI 1640 media at 37° C. […] The ability of the antifungal compound A16, at either 2 or 4 μg/mL, to induce osmotic stress was assessed using DAY185 grown in a 96 well microtiter plate containing RPMI 1640 media and NaCl, ranging in concentrations from 0-2 M in 0.25 M increments. The growth of the fungus was measured spectrophotometrically after 48 hours of growth at 35° C.

[2] = test system: C. albicans DAY185 hyphae; experiment: in vitro hyphal inhibition in RPMI 1640; type: cell-based
Experimental: Caspofungin (Merck) served as a known antifungal compound control. In vitro hyphal inhibition was assessed by incubation of DAY185 in RPMI 1640 media at 37° C. After 48 hours the cultures were visually inspected for hyphal formation by microscopy. The ability of the antifungal compound A16, at either 2 or 4 μg/mL, to induce osmotic stress was assessed using DAY185 grown in a 96 well microtiter plate containing RPMI 1640 media and NaCl, ranging in concentrations from 0-2 M in 0.25 M increments. The growth of the fungus was measured spectrophotometrically after 48 hours of growth at 35° C.
C. albicans biofilms are composed of hyphae, pseudohyphae, yeast cells, and an extracellular matrix, where the hyphae play an integral role within this complex. In order to address the reduction in biofilm formation in the presence of saponins, we tested the ability of compound A16 to inhibit hyphae formation at various concentrations in RPMI.

C. albicans cells = experiment: photosensitizer uptake by fluorescence spectrofluorimetry; type: cell-based; details: addition of A16 to RB, ce6, PEI-ce6
Experimental: In order to confirm that the increase in phototoxicity observed by combining the different PS with A16 is actually due to an increase of cellular uptake of the PS by the cells and to document that the antifungal efficacy of saponins against C. albicans is associated with increased permeability, the amount of dye within the cell was measured by fluorescence spectrofluorimetry.
Cell suspensions (10^8 cells/mL) were incubated in the dark as above using the same concentrations as for the PDI assays measured as μM PS equivalent (final concentration in incubation medium). Incubations were carried out in triplicate. Cell suspensions were centrifuged (12000 rpm, 1 min) and washed twice in 1 mL sterile PBS. The cell pellet was dissolved in 1.5 mL 0.1 M NaOH/1% SDS for 24 h to yield a homogenous solution. Uptake was determined by measurement of fluorescence in black 96-well flat-bottom plates (Costar) in a final volume of 200 μL using a Spectramax Gemini spectrofluorimeter (Molecular Devices) at 400 nmex/580-700 nmem for ce6, PEI-ce6 and 552 nmex/555-620 nmem for RB. Uptake values were obtained as previously described (Tegos et al., Antimicrob Agents Chemother, 50:196-203(2006)).
The cellular uptake of dye can be expressed as molecules per cell by correlation of the extracted PS concentration with the number of C. albicans cells present.

CC1CC[C@@]2(OC1)O[C@H]1CC3C4C[C@@H](O)C5C[C@@H](O[C@@H]6O[C@H](CO)[C@H](O[C@@H]7O[C@H](CO)[C@@H](O)[C@H](O[C@@H]8OC[C@@H](O)[C@H](O)[C@H]8O)[C@H]7O[C@@H]7O[C@H](CO)[C@@H](O)[C@H](O)[C@H]7O)[C@H](O)[C@H]6O)[C@H](O)C[C@]5(C)C4CC[C@]3(C)[C@H]1[C@@H]2C (some centres unmarked) [A16, Aginoside]
MIC in vitro [1]: 47.0 µg/mL (≈ 44 µM)
maximum nematode survival (C. albicans; dose response, C. albicans-infected C. elegans): 67%
EC50 in vivo (C. albicans; dose that resulted in 50% survival of C. albicans-infected nematodes): 47.0 µg/mL (≈ 44 µM)
toxicity to the nematode (C. elegans): none of the concentrations used in the dose response experiment showed signs of toxicity
biofilm formation (C. albicans biofilm): able to inhibit biofilm formation
hyphae formation ([2]; 1 μg/mL): visible reduction in the number of hyphae
hyphae formation ([2]; 2 μg/mL): very few hyphae formed
effect on uptake of PS by the cells (C. albicans cells): dramatically increased the uptake of PS
